Consider one compound from ChEMBL document CHEMBL5357080, “Redefining Neurodegenerative Treatment: Synergy of KEAP1, PROTACs, and Inflammatory Modulators” (ACS Med Chem Lett, 2024).

The assay deals with Bromodomain-containing protein 4 (Homo sapiens) (UniProt O60885). Kind of assay: Induction of degradation of BRD4 in human MDA-MB-468 cells at 0.01 uM measured after 24 to 48 hrs by densitometry analysis relative to control. Type of assay: cell-based. The note with it: time lower […], time upper […].

Molecules are shown by their SMILES.

Consider `Cc1sc2c(c1C)C(c1ccc(Cl)cc1)=N[C@@H](CC(=O)NCC(=O)NCCn1nnc(COc3ccc(Cl)c4c3[C@@H](CN3CC5(CC5)CC3=O)N(C(=O)[C@@H]3CCCC[C@]3(C)C(=O)O)CC4)c1C)c1nnc(C)n1-2`, for which the Activity worked out at 75%.
